From patent US12163953B2, “P-phenylene ethynylene compounds as bioactive and detection agents” (STC.UNM, priority 2014, dated 2024) come the findings set out here.

Structures can show the parent of a compound that is named as a salt. Where two headings read alike, the source gives them in different places.

Series [1] addresses T1, HEWL fibrils incubated for different lengths of time (Gallus gallus, UniProt P00698).
T1 construct: Lyophilized HEWL was dissolved at 10 mg/mL in 10 mM pH 3 sodium citrate buffer with 0.1 M NaCl; purchased Sigma-Aldrich; host or cells: hen egg white; fibrillised in house (pH 3, 70 °C, stirred)
Nature of the series: Fluorescence enhancement of dyes versus HEWL incubation time. The format is binding, hen. On the procedure:
Hen egg white lysozyme (HEWL) was used to form fibrillary amyloid aggregates for use in this study. […] For these experiments. HEWL (Sigma-Aldrich) was incubated at 70′C and a concentration of 350 μM in pH 3 sodium citrate buffer (10 mM) with 100 mM NaCl.
A plot of normalized fluorescence enhancement for all four PEs and Thioflavin T with HEWL fibrils incubated for different lengths of time is shown in FIG. 15. PE1+ and PE2+ track amyloid formation in roughly the same way as ThT, showing a sigmoidal curve with onset of a logarithmic growth phase occurring at the same time, around 1 hour of incubation. The plateau phase, as monitored by fluorescence of any of those three PEs or ThT, appeared at 2 hours incubation.
(§1) For studies of fluorescence enhancement vs. protein incubation time, dyes were mixed with protein sample in phosphate buffer (10 mM, pH 7.4) at equal monomer concentration of 10 μM in the wells of a standard 96-well plate. Emission spectra were obtained using top read with a SpectraMax M2e plate-reading spectrophotometer (Molecular Devices, Sunnyvale, CA). Experiments were performed in duplicate and errors are reported as standard deviation. For analysis of bound PE excitation and emission spectra and protein-PE energy transfer, PEs (500 nM) were mixed with protein sample (5 μM, monomer basis) in phosphate buffer and the solution transferred to a quartz, fluorometry cuvette. Spectra were obtained on a PTI QuantaMaster 40 steady state spectrofluorometer (HORIBA Scientific, Edison, NJ).

Series [2] is described as follows: Absorbance and fluorescence of −1C with AChE inhibitors without LaCh (aggregation control). The format is physicochemical. To be noted: 5 uM −1C with 5 ug/mL inhibitor, no LaCh. As to the method:
As shown in FIGS. 12A-C, it is clear that inhibition of AChE by several different inhibitors is apparent in the attenuated loss of fluorescence compared with the reference solution, with no inhibitor. […] FIGS. 13A-B illustrate (A) absorbance and (B) fluorescence (Ex: 370 nm) of 5 uM −1C with 5 ug/mL of either LaCh or one of the three AChE Inhibitors used in this study. […] Further, there is little overlap between the fluorescence of the TAE-1/IPE complex and that of the PE/LaCh complex.

Series [3] is described as follows: Absorbance/fluorescence spectroscopy and fluorescence quantum yield (comparative method) of PEs and PE/substrate aggregates. In kind it is physicochemical.
Series [4] can be described thus: Photophysical properties of PEs alone (excitation/emission spectra, fluorescence yield). In kind it is physicochemical. On the procedure:
Excitation and emission spectra of PEs in phosphate buffer alone, with monomeric HEWL and with HEWL amyloids (8 h incubated) are shown in FIGS. 18A-H, and relevant photophysical properties are summarized in Table 1. FIGS. 18A-H illustrate excitation (A, B, C, D) and emission (right; E, F, G. H) spectra of PEs (A, E: PE1+; B, F: PE1−; C, G: PE2+; D, H: […]) alone (long dashed line) with HEWL monomers (short dashed line) and with HEWL amyloids (solid line); PE concentration: 500 nM, protein concentration: 5 μM monomer basis/0.25 mg/mL; emission and excitation wavelengths, respectively, were chosen as shown in Table 1 for each sample. A 10:1 molar ratio of protein to PE was used for these experiments. Absorbance spectra were taken, but background light scattering from insoluble amyloid aggregates made them difficult to interpret, so “fluorescence detected absorbance” in the form of excitation spectra was used instead. Normalized excitation and emission spectra, in which peak shifts and lineshape changes of spectra were somewhat easier to visualize, were used. […] PE1+ (FIG. 18E) had no change in wavelength or lineshape of emission spectrum, just a large increase in intensity when mixed with amyloids. The excitation spectra (FIGS. 18A, B, C, D) show a notable bathochromic shift for each PE in solution mixed with amyloid, of 23, 27, 35 and 29 nm for PE1+, PE2+, PE3+ and PE1−, respectively, observing only the low-energy band. The high-energy band, less relevant for imaging purposes, was also bathochromically shifted. […] PE1− had similar excitation spectrum (FIG. 18B) with monomer and amyloid, except for a large intensity difference.
as §1

Series [5] has as its target T2, HEWL amyloids (Gallus gallus, UniProt P00698).
T2 construct: Lyophilized HEWL was dissolved at 10 mg/mL in 10 mM pH 3 sodium citrate buffer with 0.1 M NaCl; purchased Sigma-Aldrich; host or cells: hen egg white; fibrillised in house (pH 3, 70 °C, stirred)
In words: Excitation and emission spectra of PEs with HEWL amyloids. The format is binding, hen. The note with it: PE 500 nM, HEWL amyloid 5 μM monomer basis. As to the method:
Excitation and emission spectra of PEs in phosphate buffer alone, with monomeric HEWL and with HEWL amyloids (8 h incubated) are shown in FIGS. 18A-H, and relevant photophysical properties are summarized in Table 1. FIGS. 18A-H illustrate excitation (A, B, C, D) and emission (right; E, F, G. H) spectra of PEs (A, E: PE1+; B, F: PE1−; C, G: PE2+; D, H: PE3+) in phosphate buffer (PB, pH 7.4, 10 mM) alone (long dashed line) with HEWL monomers (short dashed line) and with HEWL amyloids (solid line); PE concentration: 500 nM, protein concentration: 5 μM monomer basis/0.25 mg/mL; emission and excitation wavelengths, respectively, were chosen as shown in Table 1 for each sample. A 10:1 molar ratio of protein to PE was used for these experiments. Absorbance spectra were taken, but background light scattering from insoluble amyloid aggregates made them difficult to interpret, so “fluorescence detected absorbance” in the form of excitation spectra was used instead. Normalized excitation and emission spectra, in which peak shifts and lineshape changes of spectra were somewhat easier to visualize, were used. […] PE1+ (FIG. 18E) had no change in wavelength or lineshape of emission spectrum, just a large increase in intensity when mixed with amyloids. The excitation spectra (FIGS. 18A, B, C, D) show a notable bathochromic shift for each PE in solution mixed with amyloid, of 23, 27, 35 and 29 nm for PE1+, PE2+, PE3+ and PE1−, respectively, observing only the low-energy band. The high-energy band, less relevant for imaging purposes, was also bathochromically shifted. […] PE1− had similar excitation spectrum (FIG. 18B) with monomer and amyloid, except for a large intensity difference.
Lyophilized HEWL was dissolved at 10 mg/mL in 10 mM pH 3 sodium citrate buffer with 0.1 M NaCl. The solution was incubated in a 70C oil bath and magnetically stirred at 250 rpm for 12 h, and aliquots were withdrawn at half-hour intervals. […] Half of each aliquot was immediately diluted into pH 7.4 phosphate buffer to prevent further influence of acidic conditions and stored at 4C.
as §1

Series [6] has as its target T3, HEWL monomers (Gallus gallus, UniProt P00698).
T3 construct: Hen egg white lysozyme and Thioflavin T were obtained from Sigma-Aldrich Chemical Company; purchased Sigma-Aldrich; host or cells: hen egg white
In words: Fluorescence interaction of PEs with HEWL monomers. The format is binding, hen. The note with it: HEWL monomers 5 μM/0.25 mg/mL. On the procedure:
Excitation and emission spectra of PEs in phosphate buffer alone, with monomeric HEWL and with HEWL amyloids (8 h incubated) are shown in FIGS. 18A-H, and relevant photophysical properties are summarized in Table 1. FIGS. 18A-H illustrate excitation (A, B, C, D) and emission (right; E, F, G. H) spectra of PEs (A, E: PE1+; B, F: PE1−; C, G: PE2+; D, H: PE3+) in phosphate buffer (PB, pH 7.4, 10 mM) alone (long dashed line) with HEWL monomers (short dashed line) and with HEWL amyloids (solid line); PE concentration: 500 nM, protein concentration: 5 μM monomer basis/0.25 mg/mL; emission and excitation wavelengths, respectively, were chosen as shown in Table 1 for each sample. […] Absorbance spectra were taken, but background light scattering from insoluble amyloid aggregates made them difficult to interpret, so “fluorescence detected absorbance” in the form of excitation spectra was used instead. […]
[formula] where x is PE concentration (with protein concentration fixed), y is PE fluorescence intensity. […] Fits to the data for the three cationic PEs produced Fmax values close to the observed saturation value, and the other two parameters are reported as calculated. […]
For studies of fluorescence enhancement vs. protein incubation time, dyes were mixed with protein sample in phosphate buffer (10 mM, pH 7.4) at equal monomer concentration of 10 μM in the wells of a standard 96-well plate. […]

Series [7] addresses T4, HEWL amyloid fibrils (Gallus gallus, UniProt P00698).
T4 construct: Lyophilized HEWL was dissolved at 10 mg/mL in 10 mM pH 3 sodium citrate buffer with 0.1 M NaCl; purchased Sigma-Aldrich; host or cells: hen egg white; fibrillised in house (pH 3, 70 °C, stirred)
Nature of the series: Induced circular dichroism of PE-amyloid complexes. In kind it is binding, hen. The note with it: PEs 10 μM, HEWL 10 μM monomer basis. As to the method:
Circular dichroism measurements were performed to determine if the intrinsic chirality of the HEWL fibrils was transferred to the PE chromophore by a chiral backbone twist or an “excitonic” chiral supramolecular aggregate. CD spectroscopy (CPEs in PB with HEWL monomer and with HEWL amyloid; performed for (a): PE1+; (b): PE1−; (c): PE2+; (d): PE3+; PEs 10 μM, HEWL 10 μM monomer basis/0.5 mg/mL) indicated induced circular dichroism of PEs when bound to HEWL amyloids. As expected, no PE had optical activity by itself in phosphate buffer solution and none of the PEs had any CD with HEWL monomer, including PE1−. […] PE2+ and PE3+ gave rise to similar CD spectra, with more intense bands in the spectrum for PE3+.
PEs and protein samples were diluted in phosphate buffer, gently vortexed, and read in a 1 mm pathlength quartz CD cuvette using an Aviv 410 CD spectrometer (Aviv Biomedical, Lakewood, NJ), 15 s averaging time. A blank spectrum (PB only) was subtracted from each sample to remove background activity. Error bars are standard deviation over multiple reads of a single sample as reported by the instrument.
A general note: Circular dichroism is widely used to follow secondary structure.

The subject of series [8] is B. atrophaeus vegetative cells. The format is cell-based, Bacillus atrophaeus. To be noted: 10 μg/mL.
For series [9], the system named is B. atrophaeus spores. The format is cell-based, Bacillus atrophaeus.
The test system of series [10] is B. anthracis Sterne vegetative cells. The format is cell-based, Bacillus anthracis Sterne. To be noted: 10 μg/mL, light-activated PE.
For series [11], the system named is B. anthracis Sterne spores. In kind it is cell-based, Bacillus anthracis Sterne. The note with it: within 90 minutes.
Where [12] appears, read: phosphate buffer pH 7.4, 10 mM, PE 500 nM.

T2 sequence (P00698 19-147): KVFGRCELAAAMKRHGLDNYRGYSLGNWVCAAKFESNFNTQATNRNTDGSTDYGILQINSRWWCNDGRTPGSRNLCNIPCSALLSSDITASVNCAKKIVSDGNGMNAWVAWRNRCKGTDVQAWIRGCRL
T1 sequence (P00698 19-147): as above
T3 sequence (P00698 19-147): as above
T4 sequence (P00698 19-147): as above

Regarding `Cc1ccc2c(c1)sc(-c1ccc(N(C)C)cc1)[n+]2C.[Cl-]` [ThT, Thioflavin T, reference compound], the “HEWL incubation time at which the plateau phase of fluorescence enhancement appears” value in series [1] (dye 10 μM, HEWL 10 μM monomer basis) was found to be 2 h.
As to `C[N+](C)(C)CCOC(=O)c1ccc(Oc2nc(Oc3ccc(C(=O)OCC[N+](C)(C)C)cc3)nc(Oc3ccc(C(=O)OCC[N+](C)(C)C)cc3)n2)cc1.[I-].[I-].[I-]` [TAE-1], the “aggregation induced with −1C” value in series [2] was “red-shifted absorbance and a strongly red-shifted and broadened green fluorescence”.
With `CCOC(=O)c1ccc(C#Cc2cc(OCCS(=O)(=O)O)c(C#Cc3ccc(C(=O)OCC)cc3)cc2OCCS(=O)(=O)O)cc1` [PE1−], in series [3] (5 uM PE with 32 uM LaCh), the “enhancement of fluorescence quantum yield, LaCh complex versus PE alone” value worked out at 66 times and the “fluorescence quantum yield of aggregate with LaCh” value came out at 0.991. The “centre of structured emission upon aggregation with substrate” value in series [3] (+2C with DLPG, −1C with LaCh) is 442 nm. Moreover, the “fluorescence quantum yield, PE alone” value in series [3] (in water, corrected value of this study) was 0.015. For the same molecule, the “λem (H2O)” value in series [4] (H2O) was found to be 454 nm. Further, the “λem (PB)” value in series [4] (phosphate buffer) was found to be 454 nm. For the same molecule, in series [4] (setting [12]), the “λex (PB), high-energy band” value came out at 314 nm and the “λex (PB), low-energy band” value is given as 370 nm. In addition, the “bathochromic shift of excitation spectrum, low-energy band, with amyloid” value in series [5] is recorded as 29 nm. Further, in [5] (PB), the “λem (PB w/ HEWL)” value was found to be 439 nm; the “λex (PB w/HEWL), high-energy band” value was determined as 327 nm; the “λex (PB w/HEWL), low-energy band” value came out at 399 nm. For the same molecule, the “binding to HEWL monomers” value in series [6] is “linear and non-saturable”. The “fluorescence enhancement with monomeric species versus amyloid” value in series [1] (equimolar concentrations, 10 μM) is “greater fluorescence enhancement when mixed with monomeric species than with amyloid”. Further, the “induced circular dichroism with HEWL amyloid” value in series [7] is reported as “strong induced CD with a negative Cotton effect”.
For `CCC1(c2cccc(O)c2)CCCCN(C)C1.Cl` (stereo not shown) [Meptazinol, 3-(3-ethylhexahydro-1-methyl-1H-azepin-3-yl)-phenol hydrochloride], the “aggregation induced with −1C” value in [2] was “no significant aggregation”.
Take `C[N+](C)(C)CCOc1ccc(C#CC2=CC=C(C#Cc3ccc(OCC[N+](C)(C)C)cc3)C2)cc1.I` [EO-PE (Th,C2)]: the cell death in series [8] (1 hour, light-activated (UVA)) turned out to be 99%. Moreover, in series [8] (1 hr, dark), the “uptake of PI relative to untreated cells” value is “increased tenfold”. The molecule also registered a cells killed in [8] (1 hr, in the absence of light) of 73%. Further, in [9], the “effect of increasing PE concentration on death or germination of spores” value is “no increased effect”, the “spores in which the water influx event progressed to stain uptake matching vegetative cells (germination)” value is given as 39%, the “spores still fluorescing like untreated spores (S gate)” value is 61% and the “spores that successfully germinate” value is on record as 15%. Besides, in [10] (within 30 minutes), the “log reduction of vegetative cells” value is on record as about 4 log. Besides, the “log reduction of vegetative cells” value in series [10] (within 90 minutes) was 5 log. Moreover, the killing of spores in series [11] (20 ng PE/spore, light-activated PE) is 99%. Besides, in series [11] (absence of UVA light), the “spores induced to germinate” value worked out at 81% and the “spores not killed that germinate into viable colony-forming vegetative cells (of all spores)” value is 72%.
Take `COc1ccc(C(=O)NCc2ccc(OCCN(C)C)cc2)cc1OC` [Itopride, N-[[4-[2-(Dimethylamino)ethoxy]phenyl]methyl]-3,4-dimethoxy benzamidehydrochloride]: the “aggregation induced with −1C” value in series [2] is on record as “no significant aggregation”.
